The nature of the assay: Inhibition of human recombinant ICAM-1 adhesion into human Jurkat cells after 1 hr.

Here are results for one molecule from BindingDB's records for doi:10.1021/ml2002482 (2012).

A word on the IC50: it is the concentration that inhibits the measured activity by half. As to `CS(=O)(=O)c1cccc(C[C@H](NC(=O)c2c(Cl)cc3c(c2Cl)CCN(C(=O)c2ccc4ccoc4c2)C3)C(=O)O)c1`, the IC50 turned out to be 2.98 nM.
